{
  "source": "patent US20240131044A1",
  "about": "“METHOD FOR TREATING CANCER” (M.T.3, Inc., priority 2022, published 2024)",
  "key": {"[1]": {"system": "angiogenesis", "conditions": "in combination with radiation; cited from earlier work"}, "[2]": {"system": "Melanoma developing cells (CML6M)", "assay": "Colony formation, survival fraction of canine melanoma cells", "assay_type": "cell-based", "conditions": "melanoma cells; doxorubicin 15 nM, SQAP not administered", "description": "(§1) An anti-cancer agent and a pharmaceutical composition were administered to test cells and then the cells were cultured. Then, after colonies were formed, the number of colonies was counted. Here, samples in which the concentration of the anti-cancer agent to be administered was varied were prepared, and in each sample, the survival fraction of the cells compared with the case where cells were cultured without administration of the pharmaceutical composition was measured. Regarding the type of anti-cancer agent to be administered, a predetermined anti-cancer agent was selected depending on the type of administration target cells. Note that cells that were cultured without administration of the pharmaceutical composition and the anti-cancer agent were used as a control. Hereinafter, these steps will be described.\n(§2) Here, CHO cells, V79 cells, and canine-derived cancer cells were prepared as the test cells. The CHO cells are ovarian cells derived from Chinese hamsters, and the V79 cells are fibroblasts derived from the lungs of Chinese hamsters. Melanoma developing cells (CML6M) and soft tissue sarcoma developing cells (STSA-1) were used as the cancer cells.\n(§3) The cancer cells were prepared by being cultured using an αMEM culture medium supplemented with 10% serum and an antibiotic. The cancer cells were prepared such that, when the concentration of the cells in a cell suspension obtained by subjecting the cultured cells to PBS washing and trypsin treatment, the concentration was within a predetermined concentration range. Here, the predetermined concentration ranges were 300 cells/well, 100 to 150 cells/well, and 500 to 1000 cells/well for the CHO/V79 cells, the melanoma cells, and the soft tissue sarcoma cells, respectively.\n(§4) Next, the cancer cells were cultured in culture environments to which the anti-cancer agent was added at various concentrations, and were then allowed to form colonies. The culture periods for colony formation were a week, 10 days, and 14 days for CHO and V79, melanoma, and soft tissue sarcoma, respectively. After colonies were formed, washing using a physiological saline solution, fixation using 100% ethanol, and staining using 0.1% crystal violet were performed, and then the number of colonies per well was counted under a microscope. Note that, here, the colony was defined as containing 50 or more cells. Moreover, mitomycin C, doxorubicin, bleomycin, camptothecin, etoposide, taxol, methyl methanesulfonate, and cisplatin were used as the anti-cancer agent.\n(§5) A graph with the horizontal axis representing the concentration of the anti-cancer agent and the vertical axis representing the survival fraction was created by plotting the survival fraction measurement results relative to the SQAP administration amounts, and the effect of the addition of SQAP on the survival fraction was examined. Hereinafter, the results from each anti-cancer agent will be shown in a table and described.\nCanine-derived melanoma cells and soft tissue sarcoma cells were used as the cells, and doxorubicin was used as the anti-cancer agent. […] Also, the concentration of the doxorubicin administered to the soft tissue sarcoma cells was set to 0 nM, 5 nM, 10 nM, and 15 nM. […] In Table 2, survival fractions in the case where SQAP was not administered are shown with a solid line, survival fractions in the case where SQAP was administered at a concentration of 10 μM are shown with a broken line, survival fractions in the case where SQAP was administered at a concentration of 20 μM are shown with a 1-dot chain line, and survival fractions in the case where SQAP was administered at a concentration of 30 μM are shown with a 2-dot chain line.\n(§6) In the above examples, the anti-cancer agent and the pharmaceutical composition were administered to the test cells and then the cells were cultured. […]"}, "[3]": {"system": "soft tissue sarcoma developing cells (STSA-1)", "assay": "Colony formation, survival fraction of canine soft tissue sarcoma cells", "assay_type": "cell-based", "conditions": "soft tissue sarcoma cells; doxorubicin 10 nM, SQAP not administered", "description": "as §1, §2, §3, §4, §5\nCanine-derived melanoma cells and soft tissue sarcoma cells were used as the cells, and doxorubicin was used as the anti-cancer agent. The amount of the doxorubicin administered to the melanoma cell was set to 0 nM, 5 nM, 10 nM, 15 nM, 20 nM, and 25 nM. […] In Table 2, survival fractions in the case where SQAP was not administered are shown with a solid line, survival fractions in the case where SQAP was administered at a concentration of 10 μM are shown with a broken line, survival fractions in the case where SQAP was administered at a concentration of 20 μM are shown with a 1-dot chain line, and survival fractions in the case where SQAP was administered at a concentration of 30 μM are shown with a 2-dot chain line.\nas §6"}, "[4]": {"system": "CHO cells", "assay": "Colony formation, survival fraction of CHO cells", "assay_type": "cell-based, Chinese hamsters", "conditions": "mitomycin C 500 nM, SQAP not administered", "description": "as §1, §2, §3\nas §4, with “Moreover, mitomycin C, doxorubicin, bleomycin, camptothecin, etoposide, taxol, methyl methanesulfonate, and cisplatin were used as the anti-cancer agent.” left out\nIn the above examples, the anti-cancer agent and the pharmaceutical composition were administered to the test cells and then the cells were cultured. In this example, test cells were cultured after administering pharmaceutical composition (SQAP) alone without administering the anti-cancer agent to the test cells, and then the number of colonies was counted after colonies were formed. […]"}, "[5]": {"system": "V79 cells", "assay": "Colony formation, survival fraction of V79 cells", "assay_type": "cell-based, Chinese hamsters", "conditions": "SQAP not administered", "description": "as §1, §2, §3\nas §4, with “Moreover, mitomycin C, doxorubicin, bleomycin, camptothecin, etoposide, taxol, methyl methanesulfonate, and cisplatin were used as the anti-cancer agent.” left out\nas §5, with “described. […]” for “described.”\nV79 cells were used as the cells, and cisplatin was used as the anti-cancer agent. The cisplatin was administered at concentrations of 0 μg/mL, 0.1 μg/mL, 0.2 μg/mL, 0.3 μg/mL, 0.4 μg/mL, and 0.5 μg/mL.\nV79 cells were used as the cells, and camptothecin was used as the anti-cancer agent. The amount of the camptothecin was set to 0 nM, 5 nM, 10 nM, 15 nM, and 20 nM.\nV79 cells were used as the cells, and mitomycin C was used as the anti-cancer agent. The amount of MMC was set to 0 nM, 100 nM, 200 nM, 300 nM, 400 nM, and 500 nM. […]\nV79 cells were used as the cells, and taxol was used as the anti-cancer agent. The amount of the taxol was set to 0 nM, 10 nM, 20 nM, and 30 nM.\nV79 cells were used as the cells, and MMS was used as the anti-cancer agent. The amount of the MMS was set to 0 μM, 10 μM, 20 μM, 30 μM, and 40 μM.\nas §6"}, "[6]": {"system": "human esophageal squamous cell carcinoma", "conditions": "in combination with radiation; mouse with transplanted human esophageal squamous cell carcinoma; cited from earlier work"}, "[7]": {"system": "human colon adenocarcinoma", "conditions": "in combination with radiation; mouse with transplanted human colon adenocarcinoma; cited from earlier work"}},
  "data": [
    {"compound": "CCCCCCCCCCCCCC(=O)OCCCO[C@H]1O[C@H](CS(=O)(=O)[O-])[C@@H](O)[C@H](O)[C@H]1O.[Na+]", "note": "[αSQAP C14:0]", "values": [
      {"measurement": "angiogenesis in an in-vitro test", "setting": "[1]", "value": "inhibited"}
    ]},
    {"compound": "CCCCCCCCCCCCCCCCCCCCCC(=O)OCCCO[C@H]1O[C@H](CS(=O)(=O)[O-])[C@@H](O)[C@H](O)[C@H]1O.[Na+]", "note": "[αSQAP C22:0]", "values": [
      {"measurement": "angiogenesis in an in-vitro test", "setting": "[1]", "value": "inhibited"}
    ]},
    {"compound": "COc1cccc2c1C(=O)c1c(O)c3c(c(O)c1C2=O)C[C@@](O)(C(=O)CO)C[C@@H]3O[C@H]1C[C@H](N)[C@H](O)[C@H](C)O1", "note": "[doxorubicin, reference compound]", "values": [
      {"measurement": "survival fraction", "setting": "[2]", "value": "about 20%"},
      {"measurement": "survival fraction", "setting": "[3]", "value": "about 6%"}
    ]},
    {"compound": "CCCCCCCCCCCCCCCCCC(=O)OCCCO[C@@H]1O[C@H](CS(=O)(=O)[O-])[C@@H](O)[C@H](O)[C@H]1O.[Na+]", "note": "[βSQAP C18:0]", "values": [
      {"measurement": "angiogenesis in an in-vitro test", "setting": "[1]", "value": "inhibited"}
    ]},
    {"compound": "CO[C@@]12[C@H](COC(N)=O)C3=C(C(=O)C(C)=C(N)C3=O)N1C[C@@H]1N[C@@H]12", "note": "[mitomycin C, reference compound]", "values": [
      {"measurement": "survival fraction", "setting": "[4]", "value": "about 40%"},
      {"measurement": "survival fraction", "setting": "[5]; mitomycin C 500 nM", "value": "about 50%"}
    ]},
    {"compound": "CC[C@@]1(O)C(=O)OCc2c1cc1n(c2=O)Cc2cc3ccccc3nc2-1", "note": "[camptothecin, reference compound]", "values": [
      {"measurement": "survival fraction", "setting": "[5]; camptothecin 20 nM", "value": "about 15%"}
    ]},
    {"compound": "N.N.[Cl][Pt][Cl]", "note": "[cisplatin, reference compound]", "values": [
      {"measurement": "survival fraction", "setting": "[5]; cisplatin 0.3 μg/mL", "value": "about 40%"}
    ]},
    {"compound": "COc1cc([C@@H]2c3cc4c(cc3[C@@H](O[C@@H]3O[C@@H]5CO[C@@H](C)O[C@H]5[C@H](O)[C@H]3O)[C@H]3COC(=O)[C@H]23)OCO4)cc(OC)c1O", "note": "[etoposide, reference compound]", "values": [
      {"measurement": "survival fraction", "setting": "[5]; etoposide 30 nM", "value": "about 30%"}
    ]},
    {"compound": "CCCCCCCCCCCCCCCCCC(=O)OCCCO[C@H]1O[C@H](CS(=O)(=O)[O-])[C@@H](O)[C@H](O)[C@H]1O.[Na+]", "note": "[αSQAP C18:0]", "values": [
      {"measurement": "increase in a tumor volume", "setting": "[6]", "value": "suppressed"},
      {"measurement": "angiogenesis in an in-vitro test", "setting": "[1]", "value": "inhibited"},
      {"measurement": "increase in a tumor volume", "setting": "[7]", "value": "suppressed"}
    ]},
    {"compound": "bleomycin [reference compound]", "values": [
      {"measurement": "survival fraction", "setting": "[5]; bleomycin 15 nM", "value": "about 40%"}
    ]},
    {"compound": "CC(=O)O[C@H]1C(=O)[C@@]2(C)[C@H]([C@H](OC(=O)c3ccccc3)[C@]3(O)C[C@H](OC(=O)[C@H](O)[C@@H](NC(=O)c4ccccc4)c4ccccc4)C(C)=C1C3(C)C)[C@]1(OC(C)=O)CO[C@@H]1C[C@@H]2O", "note": "[taxol, reference compound]", "values": [
      {"measurement": "survival fraction", "setting": "[5]; taxol 30 nM", "value": "about 5%"}
    ]},
    {"compound": "COS(C)(=O)=O", "note": "[MMS, methyl methanesulfonate, reference compound]", "values": [
      {"measurement": "survival fraction", "setting": "[5]; MMS 40 μM", "value": "about 40%"}
    ]},
    {"compound": "CCCCCCCCCC(=O)OCCCO[C@H]1O[C@H](CS(=O)(=O)[O-])[C@@H](O)[C@H](O)[C@H]1O.[Na+]", "note": "[αSQAP C10:0]", "values": [
      {"measurement": "angiogenesis in an in-vitro test", "setting": "[1]", "value": "inhibited"}
    ]}
  ]
}
